In ChEMBL document CHEMBL4680334, “Fluorescent image-based high-content screening of extracts of natural resources for cell cycle inhibitors and identification of a new sesquiterpene quinone from the sponge, Dactylospongia metachromia” (Bioorg Med Chem, 2021) one finds Activity, inhibition and IC50 data, which are given here for five compounds.

By IC50 is commonly meant the midpoint of a concentration-inhibition curve.

Assay [1] has as its system HeLa. The assay can be described thus: Induction of cell cycle arrest in human HeLa cells assessed as accumulation at G1 phase at 15 uM incubated for 1 day by propidium iodide staining based flow cytometry analysis (reference value: 59.7 %). It counts as functional. (In general: In flow cytometry, cells or beads pass a laser one at a time.)
The subject of assay [2] is HeLa. The assay can be described thus: Inhibition of cell cycle progression in human HeLa cells harboring Fucci2 assessed as cell cycle arrest at G2/M phase at 2 times of IC50 incubated for 2 days by fluorescence microscopic analysis. It counts as functional, cell-based. The settings on record: time 2.0 day.
Assay [3] concerns HeLa. The assay can be described thus: Induction of cell cycle arrest in human HeLa cells assessed as accumulation in G2/M phase at 15 uM incubated for 1 day by propidium iodide staining based flow cytometry analysis (reference value: 14.2 %). It counts as functional.
Assay [4] relates to HeLa. The assay can be described thus: Induction of cell cycle arrest in human HeLa cells assessed as accumulation at S phase at 15 uM incubated for 1 day by propidium iodide staining based flow cytometry analysis (reference value: 26.1 %). Type of assay: functional.
The subject of assay [5] is HeLa. The assay can be described thus: Cytotoxicity against human HeLa cells harboring Fucci2 assessed as reduction in cell growth incubated for 3 days by MTT assay. Type of assay: functional, cell-based. The settings on record: 72 h. On the technique in general: Formazan colour is commonly taken as a measure of viable cells.
Assay [6] deals with HeLa. The assay can be described thus: Inhibition of cell cycle progression in human HeLa cells harboring Fucci2 assessed as cell cycle arrest at S phase at 2 times of IC50 incubated for 2 days by fluorescence microscopic analysis. It counts as functional, cell-based. The following applies: time 2.0 day.

Activity calls are given as the source filed them. No cut-off for these calls is given here.

As to `CC1=CCC[C@H]2[C@](C)(CC3=C(O)C(=O)C=C(N)C3=O)[C@@H](C)CC[C@]12C`, the figures for the Activity in the assay on HeLa [1], in the assay on HeLa [3] and in the assay with HeLa [4] were 27.2%, 26.3% and 46.5%, respectively. In addition, the inhibition result in the assay with HeLa [2] and in the assay on HeLa [6] was “Active” each time. Also, the IC50 in the assay with HeLa [5] was 18 µM.

For `COC(=O)c1ccc(O)c(C[C@]2(C)[C@@H](C)CC[C@]3(C)C(C)=CCC[C@@H]23)c1`, the inhibition result in the assay on HeLa [2] and in the assay on HeLa [6] was “inactive” throughout. Also, in the assay on HeLa [5], the IC50 was determined as 13 µM.

In the case of `CC1=CCC[C@H]2[C@](C)(CC3=C(O)C(=O)C=C(NCCC[S+](C)[O-])C3=O)[C@@H](C)CC[C@]12C` (stereo partly drawn) [NAKIJIQUINONE I], the inhibition entry in the assay on HeLa [2] and with HeLa [6] was “Active” throughout. The IC50 with HeLa [5] amounted to 16 µM.

Regarding `CC1=CCC[C@H]2[C@](C)(CC3=C(O)C(=O)C=C(NCCC(C)C)C3=O)[C@@H](C)CC[C@]12C` [NAKIJIQUINONE N], the inhibition entry in the assay with HeLa [2] and with HeLa [6] was “Active” each time. The IC50 in the assay with HeLa [5] was found to be 30 µM.

For the compound `CC1=CCC[C@H]2[C@](C)(CC3=C(O)C(=O)C=C(NCCc4ccccc4)C3=O)[C@@H](C)CC[C@]12C` [NAKIJIQUINONE Q], the inhibition result in the assay with HeLa [2] and in the assay on HeLa [6] was “Active” each time. The IC50 in the assay with HeLa [5] was determined as 36 µM.
